Results taken from patent publication US20090143454A1, “Pyrazoline Derivatives and Their Use As Pesticides” (BAYER CROPSCIENCE AG, priority 2001, published 2009).

How the values were obtained:
Format in all cases: in vivo
[1] = test system: caterpillars of the army worm (Spodoptera frugiperda); assay: Spodoptera frugiperda test; conditions: 168 h, cabbage leaves dipped, after 7 d, read-out: Kill rate in % after 7 d
Experimental: (§1) To produce a suitable preparation of active compound, 1 part by weight of active compound is mixed with the stated amounts of solvent and emulsifier, and the concentrate is diluted with emulsifier-containing water to the desired concentration.
Cabbage leaves (Brassica oleracea) are treated by being dipped into the preparation of active compound of the desired concentration and are populated with caterpillars of the army worm (Spodoptera frugiperda) while the leaves are still moist.
(§2) After the desired period of time, the kill in % is determined. 100% means that all caterpillars have been killed; 0% means that none of the caterpillars have been killed.

[2] = test system: larvae of the mustard beetle (Phaedon cochleariae); assay: Phaedon larvae test; conditions: 168 h, cabbage leaves dipped, after 7 d, read-out: Kill rate in % after 7 d
Experimental: To produce a suitable preparation of active compound, 1 part by weight of active compound is mixed with the stated amounts of solvent and emulsifier, and the concentrate is diluted with emulsifier-containing water to the desired concentration. Cabbage leaves (Brassica oleracea) are treated by being dipped into the preparation of active compound of the desired concentration and are populated with larvae of the mustard beetle (Phaedon cochleariae) while the leaves are still moist.

[3] = test system: caterpillars of the diamond back moth (Plutella xylostella); assay: Plutella test; conditions: 500 ppm, cabbage leaves dipped
Experimental: as §1
Cabbage leaves (Brassica oleracea) are treated by being dipped into the preparation of active compound of the desired concentration and are populated with caterpillars of the diamond back moth (Plutella xylostella) while the leaves are still moist.
as §2

[4] = test system: Heliothis virescens larvae; assay: Test for persistency: Heliothis virescens; conditions: 20 ppm, cotton plants sprayed
Experimental: as §1
Cotton plants (Gossypium hirsutum) are sprayed with a preparation of active compound of the desired concentration. After the stated number of days, Heliothis virescens larvae are, in infection chambers, placed on the treated leaves.
as §2

[5] = test system: Heliothis virescens caterpillars; assay: Heliothis virescens test; conditions: 500 ppm, soyabean shoots dipped
Experimental: as §1
Soyabean shoots (Glycine max) are treated by being dipped into the preparation of active compound of the desired concentration and are populated with Heliothis virescens caterpillars while the leaves are still moist.
as §2

Periplaneta americana = assay: Cockroach test; conditions: dipped 1 minute, after 7 days
Experimental: (§3) 20 mg of active compound are dissolved in 1 ml of dimethyl sulphoxide. More dilute concentrations are prepared by dilution with distilled water.
4 test animals are dipped for 1 minute into the preparation of active compound to be tested. After transfer into a plastic beaker and storage for 7 days in an air-conditioned room the killing rate is determined. 100% means, that all cockroaches have been killed, 0% means, that none of the cockroaches have been killed.

[6] = test system: larvae of the army worm (Spodoptera frugiperda); assay: Test for persistency: Spodoptera frugiperda; conditions: 20 ppm, cotton plants sprayed
Experimental: as §1
Cotton plants (Gossypium hirsutum) are sprayed with a preparation of active compound of the desired concentration. After the stated number of days, larvae of the army worm (Spodoptera frugiperda) are, in infection chambers, placed on the treated leaves.
as §2

Lucilia cuprina larvae = assay: Blowfly larvae test/development-inhibitory action
Experimental: as §3
About 20 Lucilia cuprina larvae are introduced into a test tube which contains about 1 cm^3 of horsemeat and 0.5 ml of the preparation of active compound to be tested. The activity of the preparation of active compound is determined after 24 and 48 hours. The test tubes are transferred into a beaker whose bottom is covered with sand. After a further 2 days, the test tubes are removed and the pupae are counted.
The activity of the preparation of active compound is assessed using the number of flies that have hatched after 1.5 times the development period of an untreated control. 100% means that none of the flies have hatched; 0% means that all of the flies have hatched normally.

N#Cc1cnn(C2CN(C(=O)Nc3ccc(OC(F)(F)F)cc3)N=C2c2ccc(SC(F)(F)F)cc2)c1 (centres unmarked) [drawing 70]
pest or weed control at 500 ppm [1]: 100%

N#Cc1cnn(C2CN(C(=O)Nc3ccc(S(=O)(=O)C(F)(F)F)cc3)N=C2c2ccc(Br)cc2)c1 (centres unmarked) [drawing 67]
pest or weed control at 500 ppm [1]: 100%

N#Cc1cnn(C2CN(C(=O)Nc3ccc(OC(F)(F)F)cc3)N=C2c2ccc(I)cc2)c1 (centres unmarked) [drawing 68]
pest or weed control at 500 ppm [1]: 100%

N#Cc1cnn(C2CN(C(=O)Nc3ccc(OC(F)(F)F)cc3)N=C2c2ccc(I)cc2)c1 (centres unmarked) [drawing 51]
pest or weed control at 500 ppm [2]: 100%

N#Cc1cnn(C2CN(C(=O)Nc3ccc(C(F)(F)F)cc3)N=C2c2ccc(Cl)cc2)c1 (centres unmarked) [drawing 54]
Kill rate in % after 7 d [3]: 100%

N#Cc1cnn(C2CN(C(=O)Nc3ccc(SC(F)(F)F)cc3)N=C2c2ccc(SC(F)(F)F)cc2)c1 (centres unmarked) [drawing 71]
pest or weed control at 500 ppm [1]: 100%

N#Cc1cnn(C2CN(C(=O)Nc3ccc(OC(F)(F)F)cc3)N=C2c2ccc(Cl)cc2)c1 (centres unmarked) [drawing 53]
Kill rate in % after 7 d [3]: 100%

N#Cc1cnn(C2CN(C(=O)Nc3ccc(SC(F)(F)F)cc3)N=C2c2ccc(Cl)cc2)c1 (centres unmarked) [drawing 74]
Kill rate in % 7 d after infection ([4]; infection after 5 d): 80% | Kill rate in % 7 d after infection ([4]; infection after 12 d): 70% | Kill rate in % 7 d after infection ([4]; infection after 19 d): 90%

N#Cc1cnn(C2CN(C(=O)Nc3ccc(OC(F)(F)F)cc3)N=C2c2ccc(Cl)cc2)c1 (centres unmarked) [drawing 38]
Kill rate in % after 7 d [5]: 100%

N#Cc1cnn(C2CN(C(=O)Nc3ccc(C(F)(F)F)cc3)N=C2c2ccc(Cl)cc2)c1 (centres unmarked) [drawing 39]
Kill rate in % after 7 d [5]: 100%

N#Cc1cnn(C2CN(C(=O)Nc3ccc(SC(F)(F)F)cc3)N=C2c2ccc(I)cc2)c1 (centres unmarked) [drawing 69]
pest or weed control at 500 ppm [1]: 100%

N#Cc1cnn(C2CN(C(=O)Nc3ccc(C(F)(F)F)cc3)N=C2c2ccc(Cl)cc2)c1 (centres unmarked) [drawing 98]
activity/kill rate in % (Periplaneta americana; 100 ppm): 50%

COC(=O)N(C(=O)N1CC(n2cc(C#N)cn2)C(c2ccc(Cl)cc2)=N1)c1ccc(OC(F)(F)F)cc1 (centres unmarked) [drawing 45]
pest or weed control at 500 ppm [2]: 100%

N#CCN(C(=O)N1CC(n2cc(C#N)cn2)C(c2ccc(Cl)cc2)=N1)c1ccc(OC(F)(F)F)cc1 (centres unmarked) [drawing 46]
pest or weed control at 500 ppm [2]: 100%

N#Cc1cnn(C2CN(C(=O)Nc3ccc(C(F)(F)F)cc3)N=C2c2ccc(Cl)cc2)c1 (centres unmarked) [drawing 76]
Kill rate in % 7 d after infection ([6]; infection after 5 d): infection after: 5^d 12^d 19^d 100 100 100% | Kill rate in % 7 d after infection ([6]; infection after 12 d): infection after: 5^d 12^d 19^d 100 100 100% | Kill rate in % 7 d after infection ([6]; infection after 19 d): infection after: 5^d 12^d 19^d 100 100 100%

N#Cc1cnn(C2CN(C(=O)Nc3ccc(C(F)(F)F)cc3)N=C2c2ccc(Cl)cc2)c1 (centres unmarked) [drawing 62]
pest or weed control at 500 ppm [1]: 100%

CCOC(=O)N(C(=O)N1CC(n2cc(C#N)cn2)C(c2ccc(Cl)cc2)=N1)c1ccc(OC(F)(F)F)cc1 (centres unmarked) [drawing 64]
pest or weed control at 500 ppm [1]: 100%

N#Cc1cnn(C2CN(C(=O)Nc3ccc(S(=O)(=O)C(F)(F)F)cc3)N=C2c2ccc(Cl)cc2)c1 (centres unmarked) [drawing 52]
pest or weed control at 500 ppm [2]: 100%

N#Cc1cnn(C2CN(C(=O)Nc3ccc(OC(F)(F)F)cc3)N=C2c2ccc(Cl)cc2)c1 (centres unmarked) [drawing 75]
Kill rate in % 7 d after infection ([6]; infection after 5 d): infection after: 5^d 12^d 19^d 100 100 100% | Kill rate in % 7 d after infection ([6]; infection after 12 d): infection after: 5^d 12^d 19^d 100 100 100% | Kill rate in % 7 d after infection ([6]; infection after 19 d): infection after: 5^d 12^d 19^d 100 100 100%

COC(=O)N(C(=O)N1CC(n2cc(C#N)cn2)C(c2ccc(Cl)cc2)=N1)c1ccc(OC(F)(F)F)cc1 (centres unmarked) [drawing 99]
activity/kill rate in % (Periplaneta americana; 20 ppm): 25% | activity/kill rate in % (Periplaneta americana; 100 ppm): 100%

N#Cc1cnn(C2CN(C(=O)Nc3ccc(OC(F)(F)F)cc3)N=C2c2ccc(Cl)cc2)c1 (centres unmarked) [drawing 43]
pest or weed control at 500 ppm [2]: 100%

N#Cc1cnn(C2CN(C(=O)Nc3ccc(OC(F)(F)F)cc3)N=C2c2ccc(I)cc2)c1 (centres unmarked) [drawing 102]
activity/kill rate in % (Periplaneta americana; 100 ppm): 50%

N#Cc1cnn(C2CN(C(=O)Nc3ccc(OC(F)(F)F)cc3)N=C2c2ccc(Br)cc2)c1 (centres unmarked) [drawing 101]
activity/kill rate in % (Periplaneta americana; 100 ppm): 25%

N#Cc1cnn(C2CN(C(=O)Nc3ccc(OC(F)(F)F)cc3)N=C2c2ccc(Cl)cc2)c1 (centres unmarked) [drawing 97]
activity/kill rate in % (Periplaneta americana; 100 ppm): 25%

N#CCN(C(=O)N1CC(n2cc(C#N)cn2)C(c2ccc(Cl)cc2)=N1)c1ccc(OC(F)(F)F)cc1 (centres unmarked) [drawing 63]
pest or weed control at 500 ppm [1]: 100%

N#Cc1cnn(C2CN(C(=O)Nc3ccc(SC(F)(F)F)cc3)N=C2c2ccc(Cl)cc2)c1 (centres unmarked) [drawing 56]
Kill rate in % after 7 d [3]: 100%

N#Cc1cnn(C2CN(C(=O)Nc3ccc(OC(F)(F)F)cc3)N=C2c2ccc(Cl)cc2)c1 (centres unmarked) [drawing 78]
activity/kill rate in % after 48 h (Lucilia cuprina larvae; 20 ppm): 100/100% | activity/kill rate in % after 48 h (Lucilia cuprina larvae; 100 ppm): 100/100%

CCOC(=O)N(C(=O)N1CC(n2cc(C#N)cn2)C(c2ccc(Cl)cc2)=N1)c1ccc(OC(F)(F)F)cc1 (centres unmarked) [drawing 47]
pest or weed control at 500 ppm [2]: 100%

N#Cc1cnn(C2CN(C(=O)Nc3ccc(C(F)(F)F)cc3)N=C2c2ccc(Cl)cc2)c1 (centres unmarked) [drawing 73]
Kill rate in % 7 d after infection ([4]; infection after 5 d): 100% | Kill rate in % 7 d after infection ([4]; infection after 12 d): 100% | Kill rate in % 7 d after infection ([4]; infection after 19 d): 90%

N#Cc1cnn(C2CN(C(=O)Nc3ccc(OC(F)(F)F)cc3)N=C2c2ccc(Br)cc2)c1 (centres unmarked) [drawing 65]
pest or weed control at 500 ppm [1]: 100%

CCOC(=O)N(C(=O)N1CC(n2cc(C#N)cn2)C(c2ccc(Cl)cc2)=N1)c1ccc(OC(F)(F)F)cc1 (centres unmarked) [drawing 89]
activity/kill rate in % after 14 d (Lucilia cuprina larvae; 20 ppm): 100%

N#Cc1cnn(C2CN(C(=O)Nc3ccc(OC(F)(F)F)cc3)N=C2c2ccc(I)cc2)c1 (centres unmarked) [drawing 83]
activity/kill rate in % after 48 h (Lucilia cuprina larvae; 20 ppm): 100/100% | activity/kill rate in % after 48 h (Lucilia cuprina larvae; 100 ppm): 100/100%

N#Cc1cnn(C2CN(C(=O)Nc3ccc(SC(F)(F)F)cc3)N=C2c2ccc(Cl)cc2)c1 (centres unmarked) [drawing 41]
Kill rate in % after 7 d [5]: 100%

N#Cc1cnn(C2CN(C(=O)Nc3ccc(OC(F)(F)F)cc3)N=C2c2ccc(Cl)cc2)c1 (centres unmarked) [drawing 72]
Kill rate in % 7 d after infection ([4]; infection after 5 d): 100% | Kill rate in % 7 d after infection ([4]; infection after 12 d): 90% | Kill rate in % 7 d after infection ([4]; infection after 19 d): 100%

N#Cc1cnn(C2CN(C(=O)Nc3ccc(SC(F)(F)F)cc3)N=C2c2ccc(Br)cc2)c1 (centres unmarked) [drawing 66]
pest or weed control at 500 ppm [1]: 100%

N#Cc1cnn(C2CN(C(=O)Nc3ccc(Cl)cc3)N=C2c2ccc(Cl)cc2)c1 (centres unmarked) [drawing 40]
Kill rate in % after 7 d [5]: 100%

N#Cc1cnn(C2CN(C(=O)Nc3ccc(SC(F)(F)F)cc3)N=C2c2ccc(Br)cc2)c1 (centres unmarked) [drawing 50]
pest or weed control at 500 ppm [2]: 100%

N#Cc1cnn(C2CN(C(=O)Nc3ccc(OC(F)(F)F)cc3)N=C2c2ccc(Br)cc2)c1 (centres unmarked) [drawing 49]
pest or weed control at 500 ppm [2]: 100%

N#Cc1cnn(C2CN(C(=O)Nc3ccc(Cl)cc3)N=C2c2ccc(Cl)cc2)c1 (centres unmarked) [drawing 44]
pest or weed control at 500 ppm [2]: 100%

N#Cc1cnn(C2CN(C(=O)Nc3ccc(Cl)cc3)N=C2c2ccc(Cl)cc2)c1 (centres unmarked) [drawing 87]
activity/kill rate in % after 14 d (Lucilia cuprina larvae; 20 ppm): 100/100% | activity/kill rate in % after 14 d (Lucilia cuprina larvae; 100 ppm): 100/100%

N#Cc1cnn(C2CN(C(=O)Nc3ccc(S(=O)(=O)C(F)(F)F)cc3)N=C2c2ccc(Cl)cc2)c1 (centres unmarked) [drawing 84]
activity/kill rate in % after 48 h (Lucilia cuprina larvae; 20 ppm): 100/100% | activity/kill rate in % after 48 h (Lucilia cuprina larvae; 100 ppm): 100/100%

CCOC(=O)N(C(=O)N1CC(n2cc(C#N)cn2)C(c2ccc(Cl)cc2)=N1)c1ccc(OC(F)(F)F)cc1 (centres unmarked) [drawing 100]
activity/kill rate in % (Periplaneta americana; 20 ppm): 25% | activity/kill rate in % (Periplaneta americana; 100 ppm): 75%

N#Cc1cnn(C2CN(C(=O)Nc3ccc(SC(F)(F)F)cc3)N=C2c2ccc(Cl)cc2)c1 (centres unmarked) [drawing 77]
Kill rate in % 7 d after infection ([6]; infection after 5 d): 90% | Kill rate in % 7 d after infection ([6]; infection after 12 d): 100% | Kill rate in % 7 d after infection ([6]; infection after 19 d): 100%

N#Cc1cnn(C2CN(C(=O)Nc3ccc(Cl)cc3)N=C2c2ccc(Cl)cc2)c1 (centres unmarked) [drawing 55]
Kill rate in % after 7 d [3]: 100%
